Data taken from PubChem BioAssay AID179 (DTP/NCI, 2004).
Several values for one entry are separate records, joined by “and”; a condition that tells them apart may be missing. Equal entries are not always repeated. Activity calls are given as the source filed them.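 The calls were made as follows: active = compounds giving half or more protection of infected cells from virus-caused growth loss, again on retest; inactive = the rest.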 Where a SMILES comes first, the peptide text is derived from it. Bridges are numbered along the chain shown (N, C = ends). The star is where a group is joined. Boc = CC(C)(C)OC(=O)*

System: CEM cells HIV-1 protection, formazan growth assay
Experiment: NCI AIDS Antiviral Assay
Conditions: for IC50: measured here: growth of uninfected CEM cells
Outline: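 Protection of CEM cells against HIV-1 measured as cell growth via soluble formazan read-out, with five concentrations tested on both infected and uninfected cells; failure to protect may reflect toxicity.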

O=C(c1ccc(S(=O)(=O)c2ccccc2)cc1)c1ccc(S(=O)(=O)c2ccccc2)cc1
EC50: > 200 µM
IC50: > 200 µM

S=c1[nH]nc(-c2ccccc2)n1/N=C\c1ccc(-c2ccc(Cl)cc2)o1
EC50: > 5.25 µM
IC50: > 5.25 µM

CCc1c(C)c(SC)n(C)c(=O)c1C#N
EC50: > 200 µM
IC50: 69.2 µM

CCN(CC)CCCN1CCc2c([nH]c3ccccc23)C1c1cccnc1 (stereo unspecified)
EC50: > 186 µM
IC50: > 186 µM

COc1ccc(SSc2ccc(OC)n[n+]2[O-])[n+]([O-])n1
EC50: > 200 µM
IC50: 1 µM

CC(=O)N=C1N(/C=C2\C(=O)Oc3ccccc3C2=O)C(=O)/C(=C/c2ccccc2Cl)N1C
EC50: > 200 µM
IC50: 148 µM

NC(CCSCCF)C(=O)O (stereo unspecified)
EC50: > 692 µM
IC50: 102 µM

COc1ccc(/C=C2/SC(=Nc3ccccc3)N(NC(=O)Cc3ccccc3)C2=O)c(OC)c1
EC50: > 75.9 µM
IC50: > 75.9 µM

O=c1[nH]c(=O)n(C2CC(O)C(CO)O2)cc1NN=NCc1ccccc1 (stereo unspecified)
EC50: > 200 µM
IC50: > 200 µM

Cc1cc2c(cc1C)NC(C)CC(=O)N2 (stereo unspecified)
EC50: > 200 µM
IC50: > 200 µM

CCCCNC(=O)c1cc(NC(=O)c2ccc(C(=O)Nc3cc(C(=O)NCCCC)cc(C4N=CCN4)c3)cc2)cc(C2=NCCN2)c1 (stereo unspecified)
EC50: 13.2 µM
IC50: > 100 µM

N#C/C(C(=S)NCc1ccccc1)=C1/Nc2ccccc2O1
EC50: > 200 µM
IC50: 33.1 µM

O=C1OC(c2ccccc2)=N/C1=C\c1ccc(Cl)cc1Cl
EC50: > 200 µM
IC50: 97.7 µM

CN(C)c1ccc(/C=C(/NC(=O)c2ccccc2)c2nc3ccc(Cl)cc3[nH]2)cc1
EC50: > 17.4 µM
IC50: > 17.4 µM

COc1ccc(/C=C/C(=O)c2nc3ccccc3n2C)cc1
EC50: > 200 µM
IC50: 26.9 µM

O=C1Cn2nc(C(=O)c3ccccc3C#Cc3ccccc3)c(-c3ccccc3)c2-c2ccccc21
EC50: > 38.9 µM
IC50: > 38.9 µM

COc1c(Cl)cc(C(=CCC[C@H]2CC[C@@]3(C)C(CC[C@@H]4C3CC[C@]3(C)C(C(C)CCCC(C)C)CCC43)C2)c2cc(Cl)c(OC)c(C(=O)O)c2)cc1C(=O)O (stereo partly specified)
EC50: 12 µM
IC50: 302 µM

C=CCN1CCC(OC(=O)C(O)(C#CC)C2CCCC2)CC1 (stereo unspecified)
EC50: > 200 µM
IC50: > 200 µM

Cc1ccc(/C=C2\CN(C)CC3C(c4ccc(C)cc4)=C(C#N)C(=O)NC23)cc1 (stereo unspecified)
EC50: > 200 µM
IC50: > 200 µM

CCC1=C(C)/C(=C/c2[nH]c(CBr)c(CC)c2C)N=C1CBr
outcome: inactive

O=C(O)CC[C@]1(C(=O)O)NC(C(=O)O)Cc2[nH]cnc21 (stereo partly specified)
EC50: > 891 µM
IC50: > 891 µM

C#CCN(N=O)C(=O)NC(CCCNC(=O)OCc1ccccc1)C(=O)OCc1ccccc1 (stereo unspecified)
EC50: > 28.8 µM
IC50: > 28.8 µM

N#C/C(=C\c1cc(Cl)ccc1O)C1CCC([N+](=O)[O-])CC1 (stereo unspecified)
EC50: > 200 µM
IC50: 30.2 µM

CCN1C(=O)C(C)S/C1=N\NC(=O)CSc1nc2ccccc2c(=O)n1CC (stereo unspecified)
EC50: > 200 µM
IC50: 145 µM

COC(=O)C1(O)c2ccccc2N=C2C1CCN2C (stereo unspecified)
EC50: > 27.5 µM
IC50: > 27.5 µM

COc1ccc(OC)c(NS(=O)(=O)c2ccc3nc(C)n(NS(=O)(=O)c4cc(OC)ccc4OC)c(=O)c3c2)c1
EC50: > 200 µM
IC50: 43.7 µM

Cc1cccc(C)c1NC(=O)CCC(=O)NNC(=O)c1cc(O)c2ccccc2c1
EC50: > 234 µM
IC50: 33.9 µM

CCCCCCCCCCCCCCCCSS(=O)(=O)c1ccc(C)cc1
EC50: > 31.6 µM
IC50: > 31.6 µM

C=CC1(C)CCC2C(=CCC3C2(C)CC(O)C(O)C3(C)COC2OC(CO)C(O)C(O)C2O)C1 (stereo unspecified)
EC50: > 200 µM
IC50: 39.8 µM

COc1ccc2c(c1)c1c(n2CCN2CCCCC2)-c2cccc(OC)c2CC1
EC50: > 200 µM
IC50: 11.2 µM

O=C1c2ccccc2C(=O)N1n1c(Cc2ccccc2)n[nH]c1=O
EC50: > 200 µM
IC50: > 200 µM

CC(C)=C1CC(C)(C)N=C1CCC1=NC(C)(C)CC1=C(C)C
EC50: > 50.1 µM
IC50: 28.2 µM

COc1cc(C)c(C(=O)/C=C/c2cc(OC)c(O)c(OC)c2)cc1O
EC50: > 275 µM
IC50: 12.9 µM

c1ccc([P+](CCSCCSCC[P+](c2ccccc2)(c2ccccc2)c2ccccc2)(c2ccccc2)c2ccccc2)cc1
EC50: > 339 µM
IC50: 61.7 µM

O=C1c2ccccc2C2CC1c1ccccc12 (stereo unspecified)
EC50: > 214 µM
IC50: > 200 µM

O=C(O)c1ccc2c(c1)C(=O)N(c1ccc(S(=O)(=O)c3ccc(N4C(=O)c5ccc(C(=O)O)cc5C4=O)cc3)cc1)C2=O
outcome: inactive

COC1OC(COCc2ccc(Cl)cc2)C(OCc2ccc(Cl)cc2)C1O (stereo unspecified)
outcome: inactive

OCC1CCCCCCCCCCC12SCCCS2 (stereo unspecified)
EC50: > 200 µM
IC50: 120 µM

COc1ccc(CNc2nc3ccc(C(F)(F)F)cc3nc2-c2ccccc2)cc1OC
EC50: > 12 µM
IC50: > 12 µM

CC1=CC(=O)/C(=C/N2CCNC2=S)C(=O)O1
EC50: > 200 µM
IC50: > 200 µM

Cc1ccc(C(=O)Nc2ccc(S(=O)(=O)O)c3cc(S(=O)(=O)O)cc(S(=O)(=O)O)c23)cc1NC(=O)Nc1cc(C(=O)Nc2ccc(S(=O)(=O)O)c3cc(S(=O)(=O)O)cc(S(=O)(=O)O)c23)ccc1C
EC50: 138 µM
IC50: 209 µM

N#CC12C(=O)N3C(=NC(c4ccccc4)NC3c3ccccc3)C1(C#N)C(c1ccccc1)NC1=C2CCCC1 (stereo unspecified)
EC50: > 200 µM
IC50: > 200 µM

CN(C)c1ccc(/C(=N\N)c2ccccc2)cc1
EC50: > 200 µM
IC50: 112 µM

CC(CN(C)C)Nc1c2ccccc2nc2cccc([N+](=O)[O-])c12 (stereo unspecified)
EC50: > 2 µM
IC50: 0.977 µM

CCC(=O)c1c(O)c2ccccc2oc1=O
EC50: > 200 µM
IC50: > 100 µM

O=C1C(SCCO)=C(SCCO)C(=O)c2[nH]cnc21
EC50: > 437 µM
IC50: 42.7 µM

CC(/C=N/Nc1ccc([N+](=O)[O-])cn1)=N/Nc1ccc([N+](=O)[O-])cn1
EC50: > 200 µM
IC50: > 200 µM

COc1ccc(C2=Nc3ccccc3SC(C)C2)cc1 (stereo unspecified)
EC50: > 13.2 µM
IC50: > 13.2 µM

CC1=C(C(N)=O)C(c2ccncc2)C(C#N)=C2SCC(=O)N12 (stereo unspecified)
EC50: > 200 µM
IC50: > 200 µM

C=CCC(C)C(=O)CP1(=O)OC(C)CCN1C(C)(C)C (stereo unspecified)
outcome: inactive

O=C(c1cc(O)c(O)c(O)c1)c1ccc(O)c(O)c1O
EC50: > 200 µM
IC50: 3.98 µM

CCCCC1(C(=O)OCC)SCCCS1
EC50: > 75.9 µM
IC50: > 75.9 µM

C1=Cc2ccccc2C(c2ccccc2)=NC1
EC50: > 229 µM
IC50: 145 µM

COc1ccc2c(c1)CC[C@@H]1[C@@H]2CC[C@]2(C)[C@H](O)[C@H](O)C[C@@H]12
EC50: > 200 µM
IC50: 32.4 µM

Cc1cc(OP2(=O)NCc3ncccc3O2)ccc1Cl (stereo unspecified)
EC50: > 200 µM
IC50: > 200 µM

N.N.N.N.O=N[O-].O=N[O-].[Cl-].[Co+3]
outcome: inactive

O=c1[nH]c2ccc(CC(=S)N3CCN(c4ccccc4)CC3)cc2o1
EC50: > 200 µM
IC50: > 200 µM

CCC(C)C1NC(=O)C(CC(C)C)NC(=O)C(C(C)C)NC(=O)C2CSSCC(NC1=O)C(=O)N2 (stereo unspecified) (cyclo(CCVLI); disulfide 1-2; configuration not given here)
EC50: > 2 µM
IC50: 0.339 µM

COC12CCCC1S(=O)(=O)C2 (stereo unspecified)
outcome: inactive

Cc1ccc(N2C(=O)/C(=C3\Sc4c(nc(C)[nH]c4=O)N3c3ccccc3)SC2=S)cc1
EC50: > 4.07 µM
IC50: > 4.07 µM

CCOC(=O)c1c(N2CCCC2)ncn(C)c1=S
EC50: > 200 µM
IC50: > 200 µM

O=S1(=O)CC2(N3CCOCC3)CCCCC21 (stereo unspecified)
EC50: > 1020 µM
IC50: > 1020 µM

O=C(c1cc(Cl)c(O)c(C(=O)O)c1)c1cc(Cl)c(O)c(C(=O)O)c1
EC50: > 61.7 µM
IC50: 56.2 µM

O=C(CN1CCN(c2cccc(Cl)c2)CC1)N1CCc2c([nH]c3ccccc23)C1c1cccnc1 (stereo unspecified)
EC50: > 2.14 µM
IC50: > 2.14 µM

CC(Sc1ccccc1)C(=O)N1CCCC1 (stereo unspecified)
EC50: > 100 µM
IC50: > 100 µM

C[n+]1[se]c2ccccc2c1Cl
EC50: > 186 µM
IC50: 7.24 µM

NC(N)=N/N=C(/CCN1CCCC1)CC(c1ccccc1)c1c(O)c2ccccc2oc1=O (stereo unspecified)
EC50: > 38.9 µM
IC50: > 38.9 µM

O=[N+]([O-])c1cc(C2ON=C(c3ccccc3)N2C23CC4CC(CC(C4)C2)C3)ccc1Cl (stereo unspecified)
EC50: > 200 µM
IC50: 81.3 µM

CC(C)(C)C1CCC2(N3CCOCC3)C(C#N)CC2C1 (stereo unspecified)
EC50: > 794 µM
IC50: 89.1 µM and > 794 µM

O=C1Cc2c([nH]c3cc(Br)ccc23)-c2ccccc2N1
EC50: > 200 µM
IC50: 8.91 µM

Cc1[nH]nc(N)c1C#N
EC50: > 200 µM
IC50: 191 µM

CC1=NN2C(c3ccc(C)cc3)=CSC2=NC(C)(C)C1
EC50: > 174 µM
IC50: 141 µM

Nc1ncnc2snnc12
EC50: > 200 µM
IC50: > 200 µM

Cc1cn(C2CCC(CO)(C(F)(F)F)O2)c(=O)[nH]c1=O (stereo unspecified)
EC50: > 200 µM
IC50: > 200 µM

Cc1ccccc1NC(=S)Nc1ccccn1
EC50: > 200 µM
IC50: 95.5 µM

COc1ccc(-c2ncnc(-c3ccc(OC)c(OC)c3)n2)cc1OC
EC50: > 100 µM
IC50: > 100 µM

CSCCC(NC(=O)C(CC(C)C)NC(=O)C1CCCN1C(=O)C(Cc1ccccc1)NC(=O)C(Cc1ccccc1)NC(=O)C(CCC(=O)O)NC(=O)OC(C)(C)C)C(N)=O (stereo unspecified) (Boc-EFFPLM-NH2; configuration not given here)
EC50: > 282 µM
IC50: > 282 µM

CCOc1cc2c[n+](C)c3c4cc(OC)c(OC)cc4ccc3c2cc1OC
EC50: > 33.1 µM
IC50: > 33.1 µM

CC(C)N1C(=O)N(Cl)C2C1N(Cl)C(=O)N2Cl (stereo unspecified)
EC50: > 200 µM
IC50: > 200 µM

O=C1OC(c2ccccc2)N(C(=O)c2ccccc2)C1Cc1ccc(OCc2ccccc2)cc1 (stereo unspecified)
EC50: > 200 µM
IC50: 85.1 µM

O=S(=O)(O)c1cc(N=Nc2cc(S(=O)(=O)O)c3cccnc3c2O)ccc1/C=C/c1ccc(N=Nc2cc(S(=O)(=O)O)c3cccnc3c2O)cc1S(=O)(=O)O.[Na+].[Zn+2]
EC50: 1.95 µM
IC50: 14.1 µM

N#CC1=C(c2ccccc2)C(=C2Nc3ccccc3N2)C2S/C(=C\c3ccccc3)C(=O)N2C1=N (stereo unspecified)
EC50: > 2.19 µM
IC50: > 2.19 µM

N#C/C(=C\NC(=S)c1ccncc1)c1nc2ccccc2s1
EC50: > 200 µM
IC50: 145 µM

CC1CCC2(OC1)OC1CC3C4CCC5CC(O)CCC5(C)C4CC(=O)OC3(C)C1C2C (stereo unspecified)
outcome: inactive
